Assay results reported in patent US20090036363A1, “Peptides as cell penetrating carriers” (priority 2004, published 2009).
Ends that are not written are not given here.

How the values were obtained:
Assay type in all cases: cell-based, human
HeLa cells [1] = assay: Peptides toxicity assay (MTT assay), HeLa viability and proliferation; details: for cytotoxicity (result in words): MTT staining, 24 h incubation with HeLa cells, concentrations up to 1000 μM (FIG. 3A, 3B)
Method: (§1) HeLa viability and proliferation in the presence of peptides was tested using a 3-(4,5-dimethylthiazol-2-yl)-2,5-diphenyltetrazolium bromide (MTT) assay.
(§2) (cf. “MTT-cell proliferation assay” Cell Biology: A Laboratory Handbook, Academic Press, 1998, Second Ed. vol.1; Y. Liu et al., “Mechanism of cellular 3-(4,5-dimethylthiazol-2-yl)-2,5-diphenyltetrazolium bromide (MTT) reduction”, J. Neurochem. 1997 vol. 69 pp. 581-93).
(§3) For each assay 7×10^3 cells/cm^2 were seeded on a 96-well plate (Nange Nunc) (100 μl/hole) and cultured for 24 h. In order to avoid saturation in cell growth after 24 h of peptide incubation, 7×10^3 cells/cm^2 were used in the proliferation measurement (instead of 21.4×10^3 cells/cm^2 seeded in previous experiments). After complete adhesion to the plate, the culture medium was discarded. Peptides were added at growing concentrations of 50, 100, 500, and 1000 μM. The cells were incubated for 3 h or 24 h at 37° C. under 5% CO2 atmosphere. MTT was added 2 h before the final incubation time, i.e., after 1 h for the 3 h incubation time and after 22 h for the 24 h incubation time at a final concentration per hole of 0.5 mg/ml. The cells with peptide and MTT were incubated for a further 2 h and then the medium was discarded by aspiration. Isopropanol was added to dissolve formazan, a dark blue coloured crystal observed in the wells. Absorbance was measured at λ=570 nm, 30 min after the addition of isopropanol. The cell viability was expressed as a percent ratio of cells treated with peptide against cells untreated used as control.

[2] = as above; details: human, HeLa cells, MTT, 24 h incubation, read-out: cell viability; for viability at 24 h, 50 µM: peptide at 50 μM (FIG. 3B); for viability at 24 h, 500 µM: peptide at 500 μM (FIG. 3B)
Method: as §1, §2, §3

HeLa cells [3] = assay: Microplate fluorimeter reader assay (cellular uptake of carboxyfluoresceinated peptides)
Method: Comparative properties of labelled peptides for translocation through the cell membrane were checked with HeLa human cell line. First, the extent of the uptake of the monomers, dimers and trimers at 50 μM concentration in HeLa cells was quantified using a fluorescence microplate reader assay. A dose-response analysis was then undertaken, incubating HeLa cells with the peptides at different concentrations. The cellular uptake of the new peptides was also studied by confocal laser scanning microscopy (CLSM).
HeLa cells were obtained from ATCC. They were maintained in DMEM ([…]) culture medium (Biological Industries) containing 10% Fetal Calf Serum (FCS), 2 mM glutamine, 50 u/ml penicillin and […] streptomycin. For confocal microscopy experiments, exponentially growing HeLa cells were detached from the culture flasks using a trypsin-0.25% EDTA solution and the cell suspension was seeded at a concentration of 21.4×10^3 cells/cm^2 onto glass coverslips or onto 8-well Lab-Teck™ chambered coverglass or on 96-well plate (Nalge Nunc International). Experiments were carried out 24 h later, when the confluence was about 60-70%. The carboxyfluoresceinated compounds were dissolved in PBS and sterilized with 0.22 μm filters (Millex-GV, PVDF, Durapore, Millipore). The peptides and 5(6)-carboxyfluorescein stock solutions were diluted in the cell culture medium. Non-adherent cells were washed away and attached cells were incubated at 37° C. in CO2 atmosphere in DMEM medium with a known concentration of peptides for 3 h.
For each assay, 21.4×10^3 cells/cm^2 were seeded and cultured for 24 h. After complete adhesion to the plate, the culture medium was changed. […] The measurement of fluorescence emitted was carried out after 30 min incubation with lysis buffer in a FL600 Microplate Fluorescence Reader (Bio-Tek). Fluorescence was measured at a λexcitation=485/20 nm and a λemission=530/25 nm. A triplicate of each peptide or carboxyfluorescein concentration was performed and the fluorescence emitted for the blanks (cells with culture medium and without peptides) was subtracted. […]

Compound | concentration at which cytotoxic (HeLa cells [1]) [µM] | viability at 24 h, 50 µM [2] [%] | viability at 24 h, 500 µM [2] [%] | cytotoxicity (result in words) (HeLa cells [1]) | further results
CC[C@H](C)[C@H](NC(=O)[C@H](CCCCN)NC(=O)[C@@H](NC(=O)[C@H](CCC(N)=O)NC(=O)[C@@H](N)CCCNC(=N)N)[C@@H](C)CC)C(=O)N[C@@H](Cc1c[nH]c2ccccc12)C(=O)N[C@@H](Cc1ccccc1)C(=O)N[C@@H](CCC(N)=O)C(=O)N[C@@H](CC(N)=O)C(=O)N[C@@H](CCCNC(=N)N)C(=O)N[C@@H](CCCNC(=N)N)C(=O)N[C@@H](CCSC)C(=O)N[C@@H](CCCCN)C(=O)N[C@@H](Cc1c[nH]c2ccccc12)C(=O)N[C@@H](CCCCN)C(=O)N[C@@H](CCCCN)C(N)=O [Antp, (Arg-Gln-Ile-Lys-Ile-Trp-Phe-Gln-Asn-Arg-Arg-Met-Lys-Trp-Lys-Lys)-NH2] | 50 | – | – | – | –
CC[C@H](C)[C@H](NC(=O)[C@H](CCCCN)NC(=O)[C@@H](NC(=O)[C@H](CCC(N)=O)NC(=O)[C@H](CCCNC(=N)N)NC(=O)c1ccc2c(c1)C(=O)OC21c2ccc(O)cc2Oc2cc(O)ccc21)[C@@H](C)CC)C(=O)N[C@@H](Cc1c[nH]c2ccccc12)C(=O)N[C@@H](Cc1ccccc1)C(=O)N[C@@H](CCC(N)=O)C(=O)N[C@@H](CC(N)=O)C(=O)N[C@@H](CCCNC(=N)N)C(=O)N[C@@H](CCCNC(=N)N)C(=O)N[C@@H](CCSC)C(=O)N[C@@H](CCCCN)C(=O)N[C@@H](Cc1c[nH]c2ccccc12)C(=O)N[C@@H](CCCCN)C(=O)N[C@@H](CCCCN)C(N)=O [CF-Antp-NH2] | – | 75 | 11 | cytotoxic at relatively low concentrations | –
N=C(N)NCCC[C@H](NC(=O)[C@H](CCCNC(=N)N)NC(=O)[C@H](CCCNC(=N)N)NC(=O)[C@H](CCC(N)=O)NC(=O)[C@H](CCCNC(=N)N)NC(=O)[C@H](CCCNC(=N)N)NC(=O)[C@H](CCCCN)NC(=O)[C@H](CCCCN)NC(=O)[C@H](CCCNC(=N)N)NC(=O)c1ccc2c(c1)C(=O)OC21c2ccc(O)cc2Oc2cc(O)ccc21)C(N)=O [CF-Tat-NH2] | – | 64 | 40 | cytotoxic at relatively low concentrations | –
(Arg-Lys-Lys-Arg-Arg-Gln-Arg-Arg-Arg)-NH2 (RKKRRQRRR-NH2) [Tat] | 50 | – | – | – | –
CF-(Val-Arg-Leu-Pro-Pro-Pro)3 | – | – | – | – | fluorescence emitted (uptake) compared with the other CF-(Val-X-Leu-Pro-Pro-Pro)n peptides (HeLa cells [3]; HeLa cells incubated 3 h at 50 μM, X=Arg and His, n=1-3 (FIG. 2A)): higher fluorescence intensity; degree of internalization measured against CF-Antp-NH2 (HeLa cells [3]; HeLa cells, relative to CF-Antp-NH2): 20 times lower; degree of internalization measured against CF-Tat-NH2 (HeLa cells [3]; HeLa cells, relative to CF-Tat-NH2): 15 times lower
